# Measured values: US20030235811A1, “Crystallized mammalian carboxylesterase polypeptide and screening methods employing same” (priority 2002, published 2003)
# T1: deglycosylated rCE (Oryctolagus cuniculus, UniProt P12337)
# T1 construct: made in house; host or cells: Spodoptera frugiperda Sf21 cells, baculovirus, secreted; then PNGase F treatment
# T1 sequence (P12337 19-559): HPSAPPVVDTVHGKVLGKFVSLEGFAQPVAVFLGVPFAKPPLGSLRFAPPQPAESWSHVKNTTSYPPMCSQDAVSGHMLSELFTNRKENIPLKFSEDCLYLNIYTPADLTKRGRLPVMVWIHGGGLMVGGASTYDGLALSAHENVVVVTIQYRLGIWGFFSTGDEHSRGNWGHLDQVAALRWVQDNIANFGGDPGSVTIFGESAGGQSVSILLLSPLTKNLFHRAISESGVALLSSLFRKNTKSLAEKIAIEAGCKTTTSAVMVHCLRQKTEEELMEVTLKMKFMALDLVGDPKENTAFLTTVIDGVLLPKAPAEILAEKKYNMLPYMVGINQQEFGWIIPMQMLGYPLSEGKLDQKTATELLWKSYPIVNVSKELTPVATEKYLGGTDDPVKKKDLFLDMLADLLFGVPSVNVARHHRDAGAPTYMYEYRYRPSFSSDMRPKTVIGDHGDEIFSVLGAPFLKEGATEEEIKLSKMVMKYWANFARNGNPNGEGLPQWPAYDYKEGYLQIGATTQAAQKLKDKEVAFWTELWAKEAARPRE
# T2: wild type rCE (Oryctolagus cuniculus, UniProt P12337)
# T2 construct: made in house; host or cells: Spodoptera frugiperda Sf21 cells, baculovirus, secreted into the medium
# T2 sequence (P12337 19-559 limits assumed): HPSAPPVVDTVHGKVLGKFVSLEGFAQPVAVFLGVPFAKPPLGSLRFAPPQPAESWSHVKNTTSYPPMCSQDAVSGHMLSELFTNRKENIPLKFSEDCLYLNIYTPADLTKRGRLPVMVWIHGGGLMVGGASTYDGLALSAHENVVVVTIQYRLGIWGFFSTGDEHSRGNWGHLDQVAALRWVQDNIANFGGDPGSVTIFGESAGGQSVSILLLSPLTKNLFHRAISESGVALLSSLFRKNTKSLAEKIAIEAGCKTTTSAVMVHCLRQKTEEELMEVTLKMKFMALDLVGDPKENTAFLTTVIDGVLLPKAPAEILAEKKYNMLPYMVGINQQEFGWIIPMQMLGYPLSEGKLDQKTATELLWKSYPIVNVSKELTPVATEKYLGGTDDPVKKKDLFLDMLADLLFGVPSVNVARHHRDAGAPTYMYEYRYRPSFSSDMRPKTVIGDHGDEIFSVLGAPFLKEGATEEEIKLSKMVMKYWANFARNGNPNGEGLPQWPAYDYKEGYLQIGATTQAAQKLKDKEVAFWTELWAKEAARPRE
# Tests used:
# hCE1 = hCE1 (Homo sapiens, UniProt P23141)
# hCE1, sequence (P23141 18-560 isoform P23141-3 limits assumed): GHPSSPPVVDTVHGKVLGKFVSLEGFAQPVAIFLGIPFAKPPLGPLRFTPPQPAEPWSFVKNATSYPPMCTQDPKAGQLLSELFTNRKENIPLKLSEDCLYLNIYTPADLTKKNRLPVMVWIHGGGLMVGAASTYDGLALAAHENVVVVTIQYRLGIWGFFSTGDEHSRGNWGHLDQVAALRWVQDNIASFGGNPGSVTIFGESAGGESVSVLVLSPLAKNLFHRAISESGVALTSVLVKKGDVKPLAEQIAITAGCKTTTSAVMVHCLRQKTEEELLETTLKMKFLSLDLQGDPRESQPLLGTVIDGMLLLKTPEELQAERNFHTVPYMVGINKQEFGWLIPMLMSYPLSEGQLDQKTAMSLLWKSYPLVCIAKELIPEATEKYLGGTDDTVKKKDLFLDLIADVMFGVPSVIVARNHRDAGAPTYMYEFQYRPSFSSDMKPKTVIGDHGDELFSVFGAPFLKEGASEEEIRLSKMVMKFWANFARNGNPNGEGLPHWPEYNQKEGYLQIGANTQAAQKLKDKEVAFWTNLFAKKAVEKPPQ
# Experimental: A 62 kDa C-terminally-truncated form of human carboxylesterase 1 (hCE1; SEQ ID NO: 4) that lacks six C-terminal amino acids, allowing secretion of the expressed enzyme (baculovirus in Spodoptera frugiperda Sf21 cells) into the culture media, was employed. hCE1 was purified by preparative isoelectric focusing and size exclusion chromatography (BIO-GEL® P-100, Bio-Rad, Laboratories, Hercules, Calif.) from protein-free culture media. Purified hCE1 was concentrated to 5 mg ml^−1 in 20 mM HEPES pH 7.4, and crystallized in the presence of either 10 mM tacrine or 100 mM homatropine. […]
# Diffraction data were collected at Stanford Synchrotron Radiation Laboratory (SSRL) beamline 9-1, and were processed and reduced using MOSFILM (Leslie, (1992), Joint CCP4+ESF-EAMCB Newsletter on Protein Crystallography, No. 26.). […] The structures of hCE1 were determined by molecular replacement using the structure of rabbit carboxylesterase (rCE; RCSB Protein ID No. 1K4Y; Bencharit et al., (2002) Nat.Struct.Biol. 9: 337), also an aspect of the present invention, as a search model (81% sequence identity). […] Manual adjustments and rebuilding were performed using the program O (Jones et al., (1991) Acta Crystallogr. A 47: 110-119) and σA-weighted electron density maps (Read, (1986) Acta Crystallogr. A 42: 140-149). […]
# deglycosylated rCE = target: T1, deglycosylated rCE; test: CD thermal denaturation of deglycosylated rCE in the presence of 4PP; type: binding, rabbit
# Experimental: (§1) Experiments were conducted by monitoring rCE denaturation in an Applied Photophysics PISTAR-180™ CD spectropolarimeter (Applied Photophysics, Surrey, United Kingdom). Deglycosylated rCE was generated by an 18-hour treatment with 0.25 μM PNGase F (Hampton Research, Laguna Niguel, Calif., United States of America) at 37° C., which cleaves the complete high-mannose glycosyl group. Removal of the carbohydrate chains was confirmed by SDS-PAGE. Wild type protein was also heated to 37° C. for 18 hours before CD experiments. Wild type or deglycosylated rCE (0.15 mg ml^−1 (2.5 μM); in 10 mM phosphate buffer, pH 7.0, and 1 mM fresh beta-mercaptoethanol (βME) to eliminate the stabilizing effect of disulfide linkages) was treated with no 4PP or with 0.016 mM, 0.16 mM, 1.6 mM or 10 mM 4PP. The temperature was increased from 20 to 98° C. while monitoring the ellipticity at 222 nm. […]
# (§2) To confirm the significance of the 4PP bound to the surface of rCE, thermal denaturation studies were performed using CD on both wild type and deglycosylated rCE. […] In the presence of fresh reducing agent (1 mM β-mercaptoethanol (βME)), thermal denaturation of wild type and deglycosylated rCE was monitored alone and in the presence of 10-(0.016 mM), 100-(0.16 mM), 1,000-(1.6 mM) and 6,000-fold (10 mM) molar excess 4PP (FIGS. 7-9). […]
# wild type rCE = target: T2, wild type rCE; test: CD thermal denaturation of wild type rCE in the presence of 4PP; type: binding, rabbit; details: 1 mM βME
# Experimental: as §1, §2
# [1] = humans; cited from earlier work
# [2] = target: the molecule itself; test: X-ray crystal structure (self-association, homotrimer)
# Experimental: Diffraction data were collected at Stanford Synchrotron Radiation Laboratory (SSRL) beamline 9-1, and were processed and reduced using MOSFILM (Leslie, (1992), Joint CCP4+ESF-EAMCB Newsletter on Protein Crystallography, No. 26.). Crystals were of space group P2₁, and contained six molecules in the asymmetric unit for both the tacrine and homatropine complexes. See FIG. 12, in which each hCE1 is depicted in a different color. The structures of hCE1 were determined by molecular replacement using the structure of rabbit carboxylesterase (rCE; RCSB Protein ID No. 1K4Y; Bencharit et al., (2002) Nat.Struct.Biol. 9: 337), also an aspect of the present invention, as a search model (81% sequence identity). Non-identical side chains were trimmed prior to rotation and translation function searches in AmoRe (Navaza & Saludjian, (1997) Methods Enzymol. 276A: 581-594). The structures were refined using torsion angle dynamics in CNS with the maximum likelihood function target, and included an overall anisotropic B-factor and a bulk solvent correction. […] Manual adjustments and rebuilding were performed using the program O (Jones et al., (1991) Acta Crystallogr. A 47: 110-119) and σA-weighted electron density maps (Read, (1986) Acta Crystallogr. A 42: 140-149). […]
molecule,measurement,setting,value
"Nc1c2c(nc3ccccc13)CCCC2 [tacrine, 1,2,3,4-tetrahydro-9-acridinamine]",binding to hCE1,hCE1,binds effectively
"C1CCN(C2CCNCC2)CC1 [4PP, 4-piperidino-piperidine]",effect on thermal stability of deglycosylated rCE,deglycosylated rCE; high concentrations of 4PP,stabilization occurs only with high concentrations
same,effect on thermal stability of deglycosylated rCE,deglycosylated rCE; lower concentrations of 4PP,destabilize the enzyme
same,melting temperature (Tm) of wild type rCE,wild type rCE; 10- to 100-fold molar excess of 4PP (0.016-0.16 mM),51 °C
same,melting temperature (Tm) of wild type rCE,"wild type rCE; higher concentrations of 4PP (1.6 mM, 10 mM)",54-55 °C
CCc1c2c(nc3ccc(O)cc13)-c1cc3c(c(=O)n1C2)COC(=O)[C@]3(O)CC [SN-38],share of the SN-38 generated by activation of CPT-11 that makes it to the tumor,[1],~2%
"human carboxylesterase 1 (hCE1), 62 kDa C-terminally-truncated form lacking six C-terminal amino acids (enzyme, N-linked glycans (added to the model in refinement; positions not stated for the crystallised protein), Expressed by baculovirus in Spodoptera frugiperda Sf21 cells and secreted into the culture media; crystallised with tacrine or homatropine; also called human CE; human CE1) GHPSSPPVVDTVHGKVLGKFVSLEGFAQPVAIFLGIPFGKPPLGPLRFTPPQPAEPWSFVKNATSYPPMCTQDPKAGQLLSELFTNRKENIPLKLSEDCLYLNIYTPADLTKKNRLPVMVWIHGGGLMVGAASTYDGLALAAHENVVVVTIQYRLGIWGFFSTGDEHSRGNWGHLDQVAALRWVQDNIASFGGNPGSVTIFGESAGGESVSVLVLSPLAKNLFHRAISESGVALTSVLVKKGDVKPLAEQIAITAGCKTTTSAVMVHCLRQKTEEELLETTLKMKFLSLDLQGDPRESQPLLGTVIDGMLLLKTPEELQAERNFHTVPYMVGINKQEFGWLIPMLMSYPLSEGQLDQKTAMSLLWKSYPLVCIAKELIPEATEKYLGGTDDTVKKKDLFLDLIADVMFGVPSVIVARNHRDAGAPTYMYEFQYRPSFSSDMKPKTVIGDHGDELFSVFGAPFLKEGASEEEIRLSKMVMKFWANFARNGNPNGEGLPHWPEYNQKEGYLQIGANTQAAQKLKDKEVAFWTNLFAKKAVEKPPQT",binding result,[2],binds
